# Test results from patent US20020137929A1, “1 - (3-heterocyclylphenyl) isothiourea, -isourea, -guanidine and -amidine herbicidal agents” (Intellectual Property Department, BASF Aktiengesellschaft, priority 1998, published 2002).
# Key:
# [1] = system: CASOB (Sicklepod); test: Postemergence herbicidal evaluation; format: in vivo, Cassia obtusifolia; settings: for herbicidal rating CASOB / CASOB herbicidal rating: postemergence
# Outline: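 Visual 0–9 rating versus control (stand, vigor, malformation, size, chlorosis, overall appearance), taken four to five weeks post-spray. Two-week-old seedlings received roughly 0.0156–0.500 kg/ha active in acetone/water (50/50) with 0.5% TWEEN 20 via nozzle at 40 psi.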
# [2] = system: GLXMAW (Soybean, Williams); test: Preemergence herbicidal evaluation; format: in vivo, Glycine max, (L.) Merr. cv Williams; settings: rated 4-5 weeks after treatment
# Text: (§1) Results of herbicide evaluation are expressed on a rating scale (0-9). The scale is based upon a visual observation of plant stand, vigor, malformation, size, chlorosis and overall plant appearance as compared with a control.
# (§2) The preemergence herbicidal activity of the test compounds of the present invention is exemplified by the following tests in which the seeds of a variety of monocotyledonous and dicotyledonous plants are separately mixed with potting soil and planted on top of approximately one inch of soil in separate pint cups. After planting, the cups are sprayed with the selected aqueous acetone solution containing test compound in sufficient quantity to provide the equivalent of about 0.0156 to 0.500 kg per hectare of test compound per cup. The treated cups are then placed on greenhouse benches, watered and cared for in accordance with conventional greenhouse procedures. From four to five weeks after treatment, the tests are terminated and each cup is examined and rated according to the rating system provided in Example 37.
# (§3) The compounds evaluated are reported by compound number given in Example 37.
# [3] = system: ORYSAT (Rice, Tebonnet); test: Preemergence herbicidal evaluation; format: in vivo, Oryza sativa, (L.) Tebonnet; settings: rated 4-5 weeks after treatment
# Outline: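 Scores use a 0–9 visual scale covering stand, vigor, malformation, size and chlorosis relative to controls, rated four to five weeks after treatment. Before emergence, soil-planted seeds were sprayed with compound in aqueous acetone at roughly 0.0156–0.500 kg/ha and held in the greenhouse.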
# [4] = system: TRZAWR (Wheat, Winter, cv Riband); test: Preemergence herbicidal evaluation; format: in vivo, Triticum aestivum; settings: rated 4-5 weeks after treatment
# Text: as §1, §2, §3
# [5] = system: SAGPY (Arrowhead (Pygmaea)); test: Preemergence weed control under flooded paddy conditions; format: in vivo, Sagittaria pygmaea; settings: rated 3-4 weeks after treatment
# Outline: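 Herbicidal effect is scored visually on a 0-9 scale against an untreated control, three to four weeks after compounds are pipetted into the flood water (1.5 to 3 cm deep) over seeds planted in silt loam at 0.5 cm depth. Rates: about 0.0313 to 0.500 kg/ha.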
# [6] = rate 0.0156 kg/ha, rating scale 0-9
# [7] = rate 0.0313 kg/ha, rating scale 0-9
# [8] = rate 0.0625 kg/ha, rating scale 0-9
# [9] = rate 0.1250 kg/ha, rating scale 0-9
# [10] = rate 0.2500 kg/ha, rating scale 0-9
structure (smiles),measurement,setting,value
"Cc1ccc(CN2C(=O)CSC2=Nc2cc(-n3c(=O)cc(C(F)(F)F)n(C)c3=O)c(F)cc2Cl)cc1C [Compound 147, 3-{4-Chloro-5-{[3-(3,4-dimethylbenzyl)-4-oxo-2-thiazolidinylidene]amino}-2-fluorophenyl}-1-methyl-6-(trifluoromethyl)-2,4(1H,3H)-pyrimidinedione]",herbicidal rating CASOB,[1]; rate 0.0156 kg/ha,1.0
same,herbicidal rating CASOB,[1]; rate 0.0313 kg/ha,1.0
same,herbicidal rating CASOB,[1]; rate 0.0625 kg/ha,2.0
same,Preemergence herbicidal rating GLXMAW,[2]; [6],1.0
same,Preemergence herbicidal rating GLXMAW,[2]; [7],0.0
same,Preemergence herbicidal rating GLXMAW,[2]; [8],0.0
same,Preemergence herbicidal rating GLXMAW,[2]; [9],0.0
same,Preemergence herbicidal rating GLXMAW,[2]; [10],1.0
same,Preemergence herbicidal rating ORYSAT,[3]; [6],0.0
same,Preemergence herbicidal rating ORYSAT,[3]; [7],0.0
same,Preemergence herbicidal rating ORYSAT,[3]; [8],0.0
same,Preemergence herbicidal rating ORYSAT,[3]; [9],0.0
same,Preemergence herbicidal rating ORYSAT,[3]; [10],0.0
same,Preemergence herbicidal rating TRZAWR,[4]; [6],0.0
same,Preemergence herbicidal rating TRZAWR,[4]; [7],0.0
same,Preemergence herbicidal rating TRZAWR,[4]; [8],0.0
same,Preemergence herbicidal rating TRZAWR,[4]; [9],0.0
same,Preemergence herbicidal rating TRZAWR,[4]; [10],0.0
same,"herbicidal effect rating, SAGPY",[5]; 0.0313 kg/ha,0.0
same,"herbicidal effect rating, SAGPY",[5]; 0.0625 kg/ha,0.0
same,"herbicidal effect rating, SAGPY",[5]; 0.1250 kg/ha,0.0
same,"herbicidal effect rating, SAGPY",[5]; 0.2500 kg/ha,2.0
"Cn1c(C(F)(F)F)cc(=O)n(-c2cc(N=C3SCC(=O)N3Cc3ccco3)c(Cl)cc2F)c1=O [Compound 122, 3-{4-Chloro-2-fluoro-5-[(3-furfuryl-4-oxo-2-thiazolidinylidene)amino]phenyl}-1-methyl-6-(trifluoromethyl)-2,4(1H,3H)-pyrimidinedione]",herbicidal rating CASOB,[1]; rate 0.0156 kg/ha,1.0
same,herbicidal rating CASOB,[1]; rate 0.0313 kg/ha,3.0
same,herbicidal rating CASOB,[1]; rate 0.0625 kg/ha,3.0
same,herbicidal rating CASOB,[1]; rate 0.1250 kg/ha,4.0
same,Preemergence herbicidal rating GLXMAW,[2]; rate 0.0156 kg/ha,0.0
same,Preemergence herbicidal rating GLXMAW,[2]; rate 0.0313 kg/ha,0.0
same,Preemergence herbicidal rating GLXMAW,[2]; rate 0.0625 kg/ha,1.0
same,Preemergence herbicidal rating GLXMAW,[2]; rate 0.1250 kg/ha,0.0
same,Preemergence herbicidal rating GLXMAW,[2]; rate 0.2500 kg/ha,0.0
same,Preemergence herbicidal rating GLXMAW,[2]; rate 0.5000 kg/ha,0.0
same,Preemergence herbicidal rating ORYSAT,[3]; rate 0.0156 kg/ha,0.0
same,Preemergence herbicidal rating ORYSAT,[3]; rate 0.0313 kg/ha,0.0
same,Preemergence herbicidal rating ORYSAT,[3]; rate 0.0625 kg/ha,0.0
same,Preemergence herbicidal rating ORYSAT,[3]; rate 0.1250 kg/ha,0.0
same,Preemergence herbicidal rating ORYSAT,[3]; rate 0.2500 kg/ha,0.0
same,Preemergence herbicidal rating ORYSAT,[3]; rate 0.5000 kg/ha,1.0
same,Preemergence herbicidal rating TRZAWR,[4]; rate 0.0156 kg/ha,0.0
same,Preemergence herbicidal rating TRZAWR,[4]; rate 0.0313 kg/ha,0.0
same,Preemergence herbicidal rating TRZAWR,[4]; rate 0.0625 kg/ha,0.0
same,Preemergence herbicidal rating TRZAWR,[4]; rate 0.1250 kg/ha,0.0
same,Preemergence herbicidal rating TRZAWR,[4]; rate 0.2500 kg/ha,0.0
same,Preemergence herbicidal rating TRZAWR,[4]; rate 0.5000 kg/ha,1.0
same,"herbicidal effect rating, SAGPY",[5]; 0.0313 kg/ha,2.0
same,"herbicidal effect rating, SAGPY",[5]; 0.0625 kg/ha,3.0
same,"herbicidal effect rating, SAGPY",[5]; 0.1250 kg/ha,5.0
same,"herbicidal effect rating, SAGPY",[5]; 0.2500 kg/ha,6.0
"CCOC(=O)[C@H](C)N1C(=O)CSC1=Nc1cc(-n2c(=O)cc(C(F)(F)F)n(C)c2=O)c(F)cc1Cl [Compound 76, Ethyl 2-{{2-chloro-5-[3,6-dihydro-3-methyl-2,6-dioxo-4-(trifluoromethyl)-1(2H)-pyrimidinyl]-4-fluorophenyl}imino}-α-methyl-4-oxo-3-thiazolidineacetate, L-]",CASOB herbicidal rating,[1]; rate 0.0158 kg/ha,1.0
same,CASOB herbicidal rating,[1]; rate 0.0315 kg/ha,4.0
same,CASOB herbicidal rating,[1]; rate 0.0630 kg/ha,5.0
same,Preemergence herbicidal rating GLXMAW,[2]; rate 0.0156 kg/ha,0.0
same,Preemergence herbicidal rating GLXMAW,[2]; rate 0.0313 kg/ha,0.0
same,Preemergence herbicidal rating GLXMAW,[2]; rate 0.0625 kg/ha,3.0
same,Preemergence herbicidal rating GLXMAW,[2]; rate 0.1250 kg/ha,6.0
same,Preemergence herbicidal rating GLXMAW,[2]; rate 0.2500 kg/ha,9.0
same,Preemergence herbicidal rating ORYSAT,[3]; rate 0.0156 kg/ha,0.0
same,Preemergence herbicidal rating ORYSAT,[3]; rate 0.0313 kg/ha,0.0
same,Preemergence herbicidal rating ORYSAT,[3]; rate 0.0625 kg/ha,3.0
same,Preemergence herbicidal rating ORYSAT,[3]; rate 0.1250 kg/ha,4.0
same,Preemergence herbicidal rating ORYSAT,[3]; rate 0.2500 kg/ha,5.0
same,Preemergence herbicidal rating TRZAWR,[4]; rate 0.0156 kg/ha,0.0
same,Preemergence herbicidal rating TRZAWR,[4]; rate 0.0313 kg/ha,0.0
same,Preemergence herbicidal rating TRZAWR,[4]; rate 0.0625 kg/ha,3.0
same,Preemergence herbicidal rating TRZAWR,[4]; rate 0.1250 kg/ha,7.0
same,Preemergence herbicidal rating TRZAWR,[4]; rate 0.2500 kg/ha,9.0
same,SAGPY herbicidal effect rating,[5]; 0.0313 kg/ha,0.0
same,SAGPY herbicidal effect rating,[5]; 0.0625 kg/ha,0.0
same,SAGPY herbicidal effect rating,[5]; 0.1250 kg/ha,4.0
same,SAGPY herbicidal effect rating,[5]; 0.2500 kg/ha,4.0
"CCCN1C(=O)CSC1=Nc1cc(-n2c(=O)cc(C(F)(F)F)n(C)c2=O)c(F)cc1Cl [Compound 171, 3-{4-Chloro-2-fluoro-5-[(4-oxo-3-propyl-2-thiazolidinylidene)amino]phenyl}-1-methyl-6-(trifluoromethyl)-2,4 (1H, 3H)-pyrimidinedione]",Postemergence herbicidal rating CASOB,[1]; Rate 0.0156 kg/ha,2.0
same,Postemergence herbicidal rating CASOB,[1]; Rate 0.0313 kg/ha,3.0
same,herbicidal rating CASOB,[1]; rate 0.0625 kg/ha,4.0
same,Preemergence herbicidal rating GLXMAW,[2]; 0.0156 kg/ha,1.0
same,Preemergence herbicidal rating GLXMAW,[2]; 0.0313 kg/ha,2.0
same,Preemergence herbicidal rating GLXMAW,[2]; 0.0625 kg/ha,6.0
same,Preemergence herbicidal rating GLXMAW,[2]; 0.1250 kg/ha,7.0
same,Preemergence herbicidal rating GLXMAW,[2]; 0.2500 kg/ha,8.0
same,Preemergence herbicidal rating ORYSAT,[3]; 0.0156 kg/ha,2.0
same,Preemergence herbicidal rating ORYSAT,[3]; 0.0313 kg/ha,4.0
same,Preemergence herbicidal rating ORYSAT,[3]; 0.0625 kg/ha,5.0
same,Preemergence herbicidal rating ORYSAT,[3]; 0.1250 kg/ha,6.0
same,Preemergence herbicidal rating ORYSAT,[3]; 0.2500 kg/ha,8.0
same,Preemergence herbicidal rating TRZAWR,[4]; 0.0156 kg/ha,2.0
same,Preemergence herbicidal rating TRZAWR,[4]; 0.0313 kg/ha,3.0
same,Preemergence herbicidal rating TRZAWR,[4]; 0.0625 kg/ha,6.0
same,Preemergence herbicidal rating TRZAWR,[4]; 0.1250 kg/ha,6.0
same,Preemergence herbicidal rating TRZAWR,[4]; 0.2500 kg/ha,8.0
same,"herbicidal effect rating, SAGPY",[5]; 0.0313 kg/ha,6.0
same,"herbicidal effect rating, SAGPY",[5]; 0.0625 kg/ha,7.0
same,"herbicidal effect rating, SAGPY",[5]; 0.1250 kg/ha,8.0
same,"herbicidal effect rating, SAGPY",[5]; 0.2500 kg/ha,9.0
"COc1ccc(CN2C(=O)CSC2=Nc2cc(-n3c(=O)cc(C(F)(F)F)n(C)c3=O)c(F)cc2Cl)c(OC)c1 [Compound 139, 3-{4-Chloro-5-{[3-(2,4-dimethoxybenzyl)-4-oxo-2-thiazolidinylidene]amino}-2-fluorophenyl}-1-methyl-6-(trifluoromethyl)-2,4(1H,3H)-pyrimidinedione]",herbicidal rating CASOB,[1]; rate 0.0156 kg/ha,4.0
same,herbicidal rating CASOB,[1]; rate 0.0313 kg/ha,5.0
same,herbicidal rating CASOB,[1]; rate 0.0625 kg/ha,9.0
same,Preemergence herbicidal rating GLXMAW,[2]; [6],0.0
same,Preemergence herbicidal rating GLXMAW,[2]; [7],1.0
same,Preemergence herbicidal rating GLXMAW,[2]; [8],0.0
same,Preemergence herbicidal rating GLXMAW,[2]; [9],0.0
same,Preemergence herbicidal rating GLXMAW,[2]; [10],1.0
same,Preemergence herbicidal rating ORYSAT,[3]; [6],0.0
same,Preemergence herbicidal rating ORYSAT,[3]; [7],0.0
same,Preemergence herbicidal rating ORYSAT,[3]; [8],0.0
same,Preemergence herbicidal rating ORYSAT,[3]; [9],1.0
same,Preemergence herbicidal rating ORYSAT,[3]; [10],2.0
same,Preemergence herbicidal rating TRZAWR,[4]; [6],0.0
same,Preemergence herbicidal rating TRZAWR,[4]; [7],0.0
same,Preemergence herbicidal rating TRZAWR,[4]; [8],0.0
same,Preemergence herbicidal rating TRZAWR,[4]; [9],0.0
same,Preemergence herbicidal rating TRZAWR,[4]; [10],1.0
same,"herbicidal effect rating, SAGPY",[5]; 0.0313 kg/ha,0.0
same,"herbicidal effect rating, SAGPY",[5]; 0.0625 kg/ha,0.0
same,"herbicidal effect rating, SAGPY",[5]; 0.1250 kg/ha,0.0
same,"herbicidal effect rating, SAGPY",[5]; 0.2500 kg/ha,0.0
"Cn1c(C(F)(F)F)cc(=O)n(-c2cc(N=C3SCC(=O)N3C3CC3)c(Cl)cc2F)c1=O [Compound 152, 3-{4-Chloro-5-[(3-cyclopropyl-4-oxo-2-thiazolidinylidene)amino]-2-fluorophenyl}-1-methyl-6-(trifluoromethyl)-2,4(1H,3H)-pyrimidinedione]",herbicidal rating CASOB,[1]; rate 0.0156 kg/ha,0.0
same,herbicidal rating CASOB,[1]; rate 0.0313 kg/ha,0.0
same,herbicidal rating CASOB,[1]; rate 0.0625 kg/ha,3.0
same,Preemergence herbicidal rating GLXMAW,[2]; [7],0.0
same,Preemergence herbicidal rating GLXMAW,[2]; [8],2.0
same,Preemergence herbicidal rating GLXMAW,[2]; [9],2.0
same,Preemergence herbicidal rating GLXMAW,[2]; [10],2.0
same,Preemergence herbicidal rating ORYSAT,[3]; [7],0.0
same,Preemergence herbicidal rating ORYSAT,[3]; [8],1.0
same,Preemergence herbicidal rating ORYSAT,[3]; [9],1.0
same,Preemergence herbicidal rating ORYSAT,[3]; [10],1.0
same,Preemergence herbicidal rating TRZAWR,[4]; [7],0.0
same,Preemergence herbicidal rating TRZAWR,[4]; [8],1.0
same,Preemergence herbicidal rating TRZAWR,[4]; [9],1.0
same,Preemergence herbicidal rating TRZAWR,[4]; [10],1.0
same,"herbicidal effect rating, SAGPY",[5]; 0.0625 kg/ha,0.0
same,"herbicidal effect rating, SAGPY",[5]; 0.1250 kg/ha,0.0
same,"herbicidal effect rating, SAGPY",[5]; 0.2500 kg/ha,0.0
